# Measurements published in patent publication US20250136934A1, “PRODUCTION OF INDUCED MIDBRAIN DOPAMINERGIC PROGENITOR CELLS FROM PLURIPOTENT STEM CELLS” (NUWACELL BIOTECHNOLOGIES CO., LTD., priority 2023, published 2025).
# System: EN1 and LMX1A
# Test: qRT-PCR analysis of ventral midbrain markers EN1 and LMX1A in imDAP cells
# Type: cell-based, human
# Conditions: 3-step protocol
# Description: (1) qRT-PCR • 1. For qRT-PCR analysis of mRNA gene expression, RNA should be harvested from at least 2×10^6 cells. • 2. Harvest cells, add 350 μl of buffer RLT+1% (vol/vol) β-mercaptoethanol to the well, transfer the lysate to a 1.5 ml tube, and put it immediately on ice. • 3. Perform RNA extraction using the Tiangen Kit (DP430) and following the manufacturer's protocol ‘Purification of total RNA from animal and human cells’. • 4. When the RNA extraction was completed, determine the RNA concentration using a Nanodrop instrument. • 5. Perform the first-strand cDNA synthesis reaction with 1 μg of RNA using the HiScript™ II Q RT SuperMIX for qPCR (+gDNA wiper) Kit (Vazyme, #R223-01) for RT-qPCR. Follow the manufacturer's ‘First-Strand cDNA Synthesis’ protocol. This reaction would yield a 20 μl product. • 6. Dilute 10 μl cDNA product in 80 μl of nuclease-free water. • 7. Pipette the diluted cDNA product (1 μl), Sybr green master mix (5 μl, Transgen, #AQ131) and 0.95 μM reverse/forward primer mix (4 μl) into a 384-well PCR plate in triplicate, either manually or using an automated pipetting robot. The complete primer panel included the target genes and the housekeeping gene (RPL13A). In the analysis, the expression level of gene was determined by using a sample of undifferentiated hPSCs as control. • 8. Analyze the samples by running a quantitative PCR on the LightCycler 480 instrument using a 40x cycle two-step protocol with a 60° C., 60 sec annealing/elongation step and a 95° C., 30 sec denaturation step. The average CT value from the three technical replicates was used for calculation of relative gene expression using the ΔΔCT method. […]
# On Day-1, EB formation (Stage 1) was carried out by dissociating hiPSCs (Nuwacell) to form a single-cell suspension and resuspending it in Epic medium (Nuwacell, #RP01001) containing 10 μM Blebbistatin (MCE, #HY-13441) in T25 flasks on a belly dancer and culturing the cells overnight. […] On Day 16 (at the end of S2-2), imDAP cells were collected and analyzed by qRT-PCR assay for ventral midbrain marker EN1 and LMX1A. […]
structure (smiles),measurement,setting,value
"Cc1cnc(-c2cnc(NCCNc3ccc(C#N)cn3)nc2-c2ccc(Cl)cc2Cl)[nH]1 [CHIR, CHIR99021]",expression levels of EN1 and LMX1A,CHIR 5 μM and 7.5 μM compared to 10 μM,better results
same,expression levels of EN1 and LMX1A,CHIR 7.5 μM Stage 2-2 from Day 3 to Day 6 versus Day 3 to Day 10,comparable
same,expression levels of EN1 and LMX1A,"high CHIR 5, 7.5 or 10 μM Day 3 to Day 10, relative to the 2-step protocol",increased
